Experimental findings from publication doi:10.1101/415984v3 (biorxiv, 2018) are described below.

pKd: −log10 of the molar value.

The target in experiment [1] is T1, dFABP (Drosophila brain-type FABP) (Drosophila melanogaster, UniProt Q9VGM2).
T1 sequence (Q9VGM2 1-130): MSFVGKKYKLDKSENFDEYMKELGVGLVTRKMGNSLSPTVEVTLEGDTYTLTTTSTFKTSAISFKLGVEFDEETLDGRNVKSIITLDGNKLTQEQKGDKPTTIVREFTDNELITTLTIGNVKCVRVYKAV
Description: intrinsic tyrosine fluorescence melting. In kind it is binding. The conditions noted are these: GuHCl-purified dFABP; protein:OA 1:2; 20 mM Tris pH 8.0, 1 mM beta-ME.

Experiment [2] has as its target T1, dFABP (Drosophila brain-type FABP). The experiment in a line: isothermal titration calorimetry. In kind it is binding. Background: ITC needs no label: the signal is the heat of the interaction.

By pKd is commonly meant the Kd on a negative log10 scale, so that one unit is a factor of ten. Low readings indicate a high Kd, high ones a low Kd. With `CCCCCCCC/C=C\CCCCCCCC(=O)O` [OA, oleic acid], in experiment [1], the “change in Tm” value is ~ 5 °C. In experiment [2], this compound gave a pKd of about 5.80.
